Usually IC50 stands for the concentration that inhibits the measured activity by half. One may read the IC90 as the point of the concentration-response curve where the effect stands at 90%.

Bounds are passed on as bounds.

This assay has as its system Plasmodium berghei. The experiment in a line: Luciferase/luciferin-expressing antifolate-resistant parasites were used to infect a culture of HepG2 cells that were pre-incubated with compounds. Infected hepatocytes emit light due to the luciferase reaction. Assay results are presented as the percent inhibition of light emission compared to control. […]. The class given is functional. The note with it: sporozoite; for IC90: read-out: LUCIFERASE INFECTION ASSAY - IC90.

Setting [1] is: read-out: LUCIFERASE INFECTION ASSAY - IC50.

With `CN(C)c1ccc(C(c2cc(C(C)(C)C)c(O)c(C(C)(C)C)c2)N2CCN(CCO)CC2)cc1` (stereo unspecified), the concentration for an effect of 90% (IC90) was greater than 10 µM. Moreover, the IC50 (FFLUC_HILL_SLOPE 1.7, FFLUC_R_SQUARED 0.646, PBLUC_HILL_SLOPE 0.736, PBLUC_R_SQUARED 0.152, read-out: LUCIFERASE INFECTION ASSAY - IC50) was greater than 10 µM.
`CS(=O)(=O)c1cccc(S(=O)(=O)Oc2ccc(C34CC5CC(CC(C5)C3)C4)cc2)c1`: the IC90 is greater than 10 µM. Besides, the IC50 (HEPG2TOX_HILL_SLOPE 12.1, HEPG2TOX_R_SQUARED 0.709, PBLUC_HILL_SLOPE 2.69, PBLUC_R_SQUARED 0.465, read-out: LUCIFERASE INFECTION ASSAY - IC50) was found to be 4.49 µM.
With `Nc1ncnc(Sc2nnnn2-c2ccccc2)c1[N+](=O)[O-]`, the IC90 is greater than 10 µM. Besides, where the note is “HEPG2TOX_HILL_SLOPE 9.17, HEPG2TOX_R_SQUARED 0.951, read-out: LUCIFERASE INFECTION ASSAY - IC50”, the IC50 was greater than 10 µM.
For `Clc1ccccc1Oc1ccc(Nc2ccc3nnnn3n2)cc1`, the IC90 is greater than 10 µM. For the same compound, the IC50 under setting [1] was greater than 10 µM.
Regarding `Cc1ccc(C(C)C)c(OCc2ccc(C(=O)N/N=C/c3cc(C)n(Cc4ccco4)c3C)cc2)c1`, the IC90 was greater than 10 µM. For the same compound, the IC50 under setting [1] is greater than 10 µM.
For the compound `Cc1nc(/C=C/C(=O)Nc2nc3ccccc3[nH]2)cs1`, the IC90 was 1.37 µM. Besides, the IC50 (HEPG2TOX_HILL_SLOPE 0.99, HEPG2TOX_R_SQUARED 0.611, PBLUC_HILL_SLOPE 0.644, PBLUC_R_SQUARED 0.42, read-out: LUCIFERASE INFECTION ASSAY - IC50) turned out to be 0.0451 µM.
Turning to `Cc1cc(Cl)ccc1OCc1nnc(-c2ccccn2)[nH]1`, the IC90 was 3.63 µM. For the same compound, the IC50 (HEPG2TOX_HILL_SLOPE 11.7, HEPG2TOX_R_SQUARED 0.29, PBLUC_HILL_SLOPE 34.3, PBLUC_R_SQUARED 0.372, read-out: LUCIFERASE INFECTION ASSAY - IC50) is 3.41 µM.
Turning to `c1ccc(-c2nnc(SCc3cn4ccccc4n3)nc2-c2ccccc2)cc1`, the 90% effect concentration (IC90) was greater than 10 µM. Further, the IC50 under setting [1] was greater than 10 µM.
For `COc1cc(OC)cc(-c2cn3c(-c4ccc5c(c4)OCO5)cnc3cn2)c1`, the IC90 is greater than 8.79 µM. Further, the 50% inhibitory concentration (IC50) (HEPG2TOX_HILL_SLOPE 7.71, HEPG2TOX_R_SQUARED 0.876, PBLUC_HILL_SLOPE 4.45, PBLUC_R_SQUARED 0.518, read-out: LUCIFERASE INFECTION ASSAY - IC50) stood at 5.54 µM.
For the compound `Cc1ncc(S(=O)(=O)Cc2ccco2)c(N)n1`, the IC90 was greater than 13 µM. Besides, the IC50 under setting [1] is greater than 13 µM.
Consider `CC(C(=O)NCC1CCCCC1)N1CCN(c2ccc(F)cc2)CC1` (stereo unspecified), for which the IC90 is greater than 10 µM. In addition, the IC50 (FFLUC_HILL_SLOPE 3.15, FFLUC_R_SQUARED 0.597, read-out: LUCIFERASE INFECTION ASSAY - IC50) is greater than 10 µM.
For `O=C(Nc1ccc(CNC(=O)C2Cc3cc(Cl)ccc3O2)cc1)c1ccco1` (stereo unspecified), the 90% effect concentration (IC90) is greater than 10 µM. For the same compound, under setting [1], the IC50 was greater than 10 µM.
On to `Cc1ccc(NCC(=O)c2ccc(-n3nncc3-c3ccccc3)cc2)cc1`, for which the IC90 was greater than 10 µM. Further, under setting [1], the IC50 is greater than 10 µM.
Take `Cc1cc(C(=O)CSC2=NCCS2)c(C)n1-c1ccc(F)cc1`: the IC90 is greater than 10 µM. The half-maximal inhibitory concentration (IC50) (PBLUC_HILL_SLOPE 0.709, PBLUC_R_SQUARED 0.459, read-out: LUCIFERASE INFECTION ASSAY - IC50) amounted to 2.87 µM.
For `CSc1nccc(-c2ccc(S(=O)(=O)N3CCCCC3)s2)n1`, the IC90 was greater than 9.28 µM. Also, the half-maximal inhibitory concentration (IC50) under setting [1] is greater than 9.28 µM.
For the compound `Cc1ccc(CN(C)C(=O)CSc2nnc(-c3ccc(C(C)(C)C)cc3)o2)c(C)c1`, the IC90 is greater than 10 µM. The concentration for half-maximal inhibition (IC50) under setting [1] is greater than 10 µM.
With `CCOC(=O)c1[nH]c(CN2CCN(c3ccccc3)CC2)c(C(=O)OCC)c1C`, the IC90 is greater than 10 µM. In addition, the IC50 (PBLUC_HILL_SLOPE 7.85, PBLUC_R_SQUARED 0.611, read-out: LUCIFERASE INFECTION ASSAY - IC50) was found to be 8.25 µM.
`COc1ccc(-n2cnnc2SCC(=O)NC(=O)NC2CCCC2)cc1`: the IC90 was greater than 10 µM. The IC50 (FFLUC_HILL_SLOPE 14.6, FFLUC_R_SQUARED 0.0899, read-out: LUCIFERASE INFECTION ASSAY - IC50) is greater than 10 µM.
For the compound `CCOc1ccc2c(c1)sc(=N)n2Cc1ccc(Cl)cc1`, the IC90 is greater than 10 µM. In addition, the IC50 (PBLUC_HILL_SLOPE 3.98, PBLUC_R_SQUARED 0.233, read-out: LUCIFERASE INFECTION ASSAY - IC50) was determined as 6.2 µM.
`N#Cc1ccc(Cc2cnc(NC(=O)c3ccc4ncsc4c3)s2)cc1`: the IC90 was 1.82 µM. For the same compound, the IC50 (HEPG2TOX_HILL_SLOPE 1.13, HEPG2TOX_R_SQUARED 0.797, PBLUC_HILL_SLOPE 1.77, PBLUC_R_SQUARED 0.567, read-out: LUCIFERASE INFECTION ASSAY - IC50) is 0.526 µM.
Regarding `CNc1nc2cnc(Nc3cccc(Oc4ccccc4)c3)cc2n1-c1ccccc1`, the IC90 was greater than 10 µM. The IC50 (HEPG2TOX_HILL_SLOPE 5.82, HEPG2TOX_R_SQUARED 0.501, PBLUC_HILL_SLOPE 8.19, PBLUC_R_SQUARED 0.453, read-out: LUCIFERASE INFECTION ASSAY - IC50) was found to be 8.37 µM.
For the compound `NC(=O)c1ccc(Nc2nc(-c3cccnc3)nc3ccccc23)cc1`, the IC90 is greater than 10 µM. The IC50 (PBLUC_HILL_SLOPE 4.21, PBLUC_R_SQUARED 0.0982, read-out: LUCIFERASE INFECTION ASSAY - IC50) was greater than 10 µM.
Regarding `CCOC(=O)c1sc(N2CCCC2)c2c1CC(C)(C)CC2=O`, the IC90 is greater than 10.3 µM. Further, the IC50 under setting [1] was greater than 10.3 µM.
Regarding `COc1ccccc1NC(=O)C(C)OC(=O)c1ccc(NS(=O)(=O)c2ccc(Cl)c(Cl)c2)cc1` (stereo unspecified), the IC90 is greater than 10 µM. The half-inhibitory concentration (IC50) (HEPG2TOX_HILL_SLOPE 8.29, HEPG2TOX_R_SQUARED 0.881, read-out: LUCIFERASE INFECTION ASSAY - IC50) is greater than 10 µM.
For the compound `COc1cc(C(=O)N2CC=C(c3c[nH]c4ccccc34)CC2)cc(Cl)c1OC`, the concentration for an effect of 90% (IC90) was greater than 10 µM. For the same compound, for the setting “HEPG2TOX_HILL_SLOPE 1.93, HEPG2TOX_R_SQUARED 0.934, PBLUC_HILL_SLOPE 11.8, PBLUC_R_SQUARED 0.218, read-out: LUCIFERASE INFECTION ASSAY - IC50”, the IC50 turned out to be 8.9 µM.
As to `Cc1nn(-c2ccc(C(F)(F)F)cn2)c2ncc(CCCO)cc12`, the concentration for an effect of 90% (IC90) is greater than 10 µM. In addition, the half-maximal inhibitory concentration (IC50) (HEPG2TOX_HILL_SLOPE 0.869, HEPG2TOX_R_SQUARED 0.0884, read-out: LUCIFERASE INFECTION ASSAY - IC50) is greater than 10 µM.
`FC(F)(F)Oc1cccc(-c2[nH]nc3ccnc(-c4ccsc4)c23)c1`: the IC90 is greater than 10 µM. Further, under setting [1], the IC50 was greater than 10 µM.
Turning to `CC(C)C(Nc1ccc(S(=O)(=O)N2CCOCC2)cc1[N+](=O)[O-])c1nc2ccccc2[nH]1` (stereo unspecified), the IC90 was greater than 10 µM. Further, under setting [1], the IC50 turned out to be 9.46 µM.
Regarding `CC(C)Cc1ccc(C(C)NC(=O)c2ccc(CNC(N)=O)cc2)cc1` (stereo unspecified), the IC90 is greater than 10 µM. Besides, the IC50 (HEPG2TOX_HILL_SLOPE 1.82, HEPG2TOX_R_SQUARED 0.295, read-out: LUCIFERASE INFECTION ASSAY - IC50) is greater than 10 µM.
As for `CNC(=O)c1nn(CCc2ccccc2)c2c1CC(NCCC(C)C)CC2` (stereo unspecified), the IC90 is greater than 8.95 µM. Under setting [1], the IC50 was greater than 8.95 µM.
As for `COc1ccc(C2CCCCCN2C(=O)CCc2c(C)[nH]c(-c3ccccc3)nc2=O)cc1` (stereo unspecified), the IC90 worked out at 3.45 µM. In addition, the IC50 (PBLUC_HILL_SLOPE 57.7, PBLUC_R_SQUARED 0.487, read-out: LUCIFERASE INFECTION ASSAY - IC50) turned out to be 3.32 µM.
For the compound `CCCOc1ccc(C(F)(F)F)cc1NC(=O)c1nc2nccc(C)n2n1`, the IC90 came to 3 µM. Also, the IC50 (PBLUC_HILL_SLOPE 0.895, PBLUC_R_SQUARED 0.844, read-out: LUCIFERASE INFECTION ASSAY - IC50) worked out at 0.258 µM.
As to `CCOC(=O)c1c(S(=O)(=O)Nc2ccc(C(C)(C)C)cc2)c(-c2ccccc2)n(-c2ccccc2)c1C`, the IC90 is 5.19 µM. Also, the IC50 (FFLUC_HILL_SLOPE 2.33, FFLUC_R_SQUARED 0.844, HEPG2TOX_HILL_SLOPE 0.337, HEPG2TOX_R_SQUARED 0.667, PBLUC_HILL_SLOPE 4.65, PBLUC_R_SQUARED 0.51, read-out: LUCIFERASE INFECTION ASSAY - IC50) came to 3.23 µM.
Regarding `O=C(/C=C/c1cn(-c2ccccc2)nc1-c1ccncc1)c1cccc(N2CCCC2=O)c1`, the IC90 is greater than 10 µM. The IC50 (HEPG2TOX_HILL_SLOPE 7.23, HEPG2TOX_R_SQUARED 0.576, PBLUC_HILL_SLOPE 3.48, PBLUC_R_SQUARED 0.189, read-out: LUCIFERASE INFECTION ASSAY - IC50) was determined as 9.57 µM.
As for `O=C(Nc1ccc(F)cc1F)c1cc(Cl)ccc1O`, the IC90 was 4.37 µM. Besides, the IC50 (HEPG2TOX_HILL_SLOPE 14.4, HEPG2TOX_R_SQUARED 0.715, PBLUC_HILL_SLOPE 17.6, PBLUC_R_SQUARED 0.0303, read-out: LUCIFERASE INFECTION ASSAY - IC50) is 3.86 µM.
Turning to `Cn1c(-c2ccccc2)nc2cnc(-c3ccc(N)nc3)cc21`, the 90% effect concentration (IC90) was greater than 10 µM. Besides, under “HEPG2TOX_HILL_SLOPE 4.2, HEPG2TOX_R_SQUARED 0.898, PBLUC_HILL_SLOPE 2.04, PBLUC_R_SQUARED 0.316, read-out: LUCIFERASE INFECTION ASSAY - IC50”, the IC50 turned out to be 5.32 µM.
Regarding `O=C(CSc1cccc[n+]1[O-])Nc1ccccc1OC(F)F`, the IC90 was greater than 10 µM. Also, the IC50 under setting [1] was greater than 10 µM.
With `CCc1cc(-c2n[nH]cc2-c2ccc3c(c2)OCCO3)c(O)cc1OC`, the IC90 amounted to 1.59 µM. Further, under “HEPG2TOX_HILL_SLOPE 1.05, HEPG2TOX_R_SQUARED 0.928, PBLUC_HILL_SLOPE 1.82, PBLUC_R_SQUARED 0.694, read-out: LUCIFERASE INFECTION ASSAY - IC50”, the half-inhibitory concentration (IC50) worked out at 0.474 µM.

The values above are taken from ChEMBL document CHEMBL4483862, “Open-source discovery of chemical leads for next-generation chemoprotective antimalarials” (2018).
